“Also recorded” adds a separate entry of the source.
How the values were obtained:
[1] = system: tomato (variety Caramba); assay: Yield of tomato under drought stress, greenhouse pot test; format: in vivo; details: for Yield (g/plot accumulation): drought stress 50% water, four foliar sprays, ABA is (S)-(+)-abscisic acid, Lys is L-Lys hydrochloride, control with drought 924.2; for % to T2: yield relative to control with drought stress (T2)
Method: A pot test of tomato was carried out in a greenhouse in Valencia, Spain. The test was carried out using 20 pots (=20 replications) of tomatoes grown on pots of 0.3 m^2 size. The variety of tomato used was Caramba. Abscisic acid used was (S)-(+)-abscisic acid and Lys used was L-Lys hydrochloride. Foliar spray treatments were carried out four times. The first treatment was carried out at time 61 on the BBCH scale (BBCH61: when the first flower of the first inflorescence bloomed), the second treatment was carried out 21 days after the first treatment, the third treatment was carried out 14 days after the second treatment, and the fourth treatment was carried out 14 days after the third treatment. A harvest survey was carried out at time 82 on the BBCH scale (BBCH82: when 20% of the fruit were fully ripe and colored).

[2] = system: Arabidopsis thaliana; assay: Drought stress tolerance: dehydration amount during cultivation without water supply; format: in vivo; details: spray, control approximately 77%
Method: A test for verifying an effect of conferring drought stress tolerance by a combination of Lys and ABA was carried out (n=4). For Arabidopsis thaliana grown on rockwool under short-day conditions for 35 days, the weight of the rockwool and the whole plant was measured, to determine the initial weight. Arabidopsis thaliana was spray treated with 2.5 mM of Lys and 5 μM or 50 μM of ABA alone or in combination (first spray treatment). As a control treatment group, Arabidopsis thaliana was spray treated with DMSO (first spray treatment). After the first spray treatment, cultivation was continued for 7 days without water supply. During cultivation, a second spray treatment was carried out 4 days after the first spray treatment. The weight of the rockwool and the whole plant was measured 4 and 7 days after the first spray treatment, to determine the post-cultivation weight. The post-cultivation weight was subtracted from the initial weight, to determine the dehydration amount during cultivation.

[3] = system: Wheat (Norin 61); assay: Drought stress tolerance of wheat: water loss and survival rate; format: in vivo; details: 10 μM ABA (2.5 mM Lys in the combination)
Method: A test for verifying an effect of conferring drought stress tolerance by a combination of Lys and ABA in wheat was carried out. Wheat (Norin 61) grown on rockwool under long-day conditions for 13 days was spray treated with 10 μM of ABA alone or with 2.5 mM or 10 mM of Lys and 10 μM of ABA in combination. As a control treatment group (Mock), the wheat was spray treated with DMSO. After the spray treatment, cultivation was continued without water supply, to subject wheat to drought stress. During cultivation, the water loss from the rockwool was measured. Water was again supplied to the wheat 21 days after the spray treatment, and the survival rate was measured 23 days after the spray treatment (n=24).

[4] = system: Arabidopsis thaliana; assay: Drought stress tolerance: survival rate after drought and re-watering; format: in vivo; details: 12 days after spray, water supplied again at 9 days; 50 μM ABA (2.5 mM Lys in the combination); Mock 8.5%
Method: A test for verifying an effect of conferring drought stress tolerance by a combination of Lys and ABA was carried out. Arabidopsis thaliana grown on rockwool under short-day conditions for 35 days was spray treated with 50 μM of ABA alone or with 2.5 mM of Lys and 50 μM of ABA in combination. As a control treatment group (Mock), Arabidopsis thaliana was spray treated with DMSO. After the spray treatment, cultivation was continued without water supply, to subject Arabidopsis thaliana to drought stress. Water was again supplied to Arabidopsis thaliana 9 days after the spray treatment, and the survival rate was measured 12 days after the spray treatment (n=94-96).

[5] = system: RD29B and MAPKKK18; assay: Effect of Lys derivatives and nitrogen-containing compounds on induction of environmental stress tolerance genes by ABA (activity level); format: in vivo, Arabidopsis thaliana; details: total of induction activities of RD29B and MAPKKK18 with 1 mM compound and 0.25 μM ABA, relative to ABA alone taken as 1; >1 enhanced, 1 no effect, <1 suppressed
Method: (§1) Four to six young Arabidopsis thaliana plants grown on a 50% concentration MS (Murashige-Skoog) agar medium were transferred to a 6-well plate containing a 50% concentration MS (Murashige-Skoog) liquid medium and pre-cultured for 16 hours, then added with a treatment solution containing each amino acid alone or a treatment solution containing a combination of each amino acid and ABA, and left for 6 hours. Then, RNA was then isolated from the plants with a nucleic acid purification kit (Promega, Maxwell (registered trademark) 16 LEV simplyRNA Tissue Kit). Then, cDNA was synthesized with a cDNA synthesis reagent for real-time PCR (Toyobo, ReverTra Ace (registered trademark) qPCR RT Master Mix).
GAPDH is a glyceraldehyde-3-phosphate dehydrogenase gene and was selected as an internal standard.
Lys or each Lys derivative is used for treatment at 1 mM and ABA at 0.25 μM.

[6] = system: RD29A, RD29B, MAPKKK18, ABF3F and SLAC1 genes; assay: Induction of expression of environmental stress tolerance (ABA-responsive) genes, real-time PCR, relative to GAPDH; format: in vivo, Arabidopsis thaliana; details: for activity of synergistically enhancing the effect of ABA: RD29B expression, amino acid in combination with ABA
Method: as §1
MAPKKK18 is a gene encoding a kinase (MAPKKK18, MITOGEN-ACTIVATED PROTEIN KINASE KINASE KINASE 18) that functions in the ABA signaling pathway of Arabidopsis thaliana (Zelicourt A. et al., Trends in Plant Science 21: (2016)). RD29A and RD29B are genes encoding hydrophilic proteins (RESPONSIVE TO DESICCATION 29A, RESPONSIVE TO DESICCATION 29B) that are responsive for ABA and environmental stress such as drought stress and salinity stress and considered to be involved in stress tolerance and senescence suppression (Yang S. D. et al., Plant Cell 6: 2155-2168 (2011)). ABF3 is a gene encoding a transcription factor (ABA-responsive element-binding protein) that regulates expression of ABA-responsive genes (Yoshida T. et al., Plant, cell and Environment 38: 35-49 (2015)). SLAC1 is a gene encoding an anion channel involved in stomatal closure (Yoshida et al., J Plant Res (2016) 129:39-49). GAPDH is a glyceraldehyde-3-phosphate dehydrogenase gene and was selected as an internal standard.
The expression levels of the genes were calculated as relative expression levels to the GAPDH gene. Twenty amino acids were divided into 10 each, and the gene expression inducing activity when combined with ABA was evaluated in two tests (n=2).
(§2) The expression levels of the respective genes were calculated as relative expression levels to the GAPDH gene in the same manner as in Example 1.
Separately, Arabidopsis thaliana was treated with a combination of 0.1 mM, 0.25 mM, 1 mM, 2.5 mM, 10 mM, or 25 mM of Lys and 0.25 μM of ABA in the same manner as in Example 1, and expression of MAPKKK18, RD29A, and RD29B genes after 6 hours of treatment was analyzed (n=3). The expression levels of the respective genes were calculated as relative expression levels to the GAPDH gene in the same manner as in Example 1. […]
as §2, §2

[7] = system: RD29A, RD29B, MAPKKK18, ABF3F and SLAC1 genes; assay: as above; format: in vivo, Arabidopsis thaliana; details: amino acid alone or combination with ABA, 6 hours, n=3
[8] = MAPKKK18, RD29A, RD29B, 0.05-2.5 mM Lys with 0.25 μM ABA, 6 hours, upper panel of FIG. 3

With `CC1=CC(=O)CC(C)(C)C1(O)/C=C/C(C)=C\C(=O)O` (racemic) [ABA, abscisic acid, reference compound] the “Yield (g/plot accumulation)” value ([1]; 10 μM ABA and/or 2.5 mM Lys) was 1008.1 g/plot, the “Yield (g/plot accumulation)” value ([1]; 100 μM ABA and/or 25 mM Lys) was 1081.6 g/plot and the “% to T2” value ([1]; 10 μM ABA and/or 2.5 mM Lys) was 109.1%. For the same molecule, the “% to T2” value ([1]; 100 μM ABA and/or 25 mM Lys) was 117.0%, the “dehydration amount on the 4th day” value ([2]; 5 μM ABA (2.5 mM Lys in the combination)) was “approximately 80.1%” and the “dehydration amount on the 4th day” value ([2]; 50 μM ABA (2.5 mM Lys in the combination)) was “approximately 57%”. For the same molecule, the survival rate ([3]; 23 days after spray, water supplied again at 21 days, Mock 9.4%) was 6.7%, the “dehydration amount on the 5th day” value ([3]; spray, control approximately 84%) was “approximately 61%” and the “dehydration amount on the 6th day” value ([3]; spray, control approximately 91%) was “approximately 82%”. For the same molecule, the survival rate [4] was 13.5%, the Activity level [5] was 1 and the “Expression induction of RD29A and RD29B genes by ABA” value ([6]; wild-type strain (WT, Col-0), 0.25 μM ABA, 6 hours) was “observed”.

In the case of `NCCCC[C@H](N)C(=O)O` [No. 1, lysine], the “Yield (g/plot accumulation)” value ([1]; 10 μM ABA and/or 2.5 mM Lys) is reported as 1089.3 g/plot, the “Yield (g/plot accumulation)” value ([1]; 100 μM ABA and/or 25 mM Lys) is reported as 1114.6 g/plot and the “% to T2” value ([1]; 10 μM ABA and/or 2.5 mM Lys) is reported as 117.9%. The “% to T2” value ([1]; 100 μM ABA and/or 25 mM Lys) was 120.6%, the “activity to induce expression of the environmental stress tolerance gene RD29B” value (from here on “activity to induce expression”) [7] was “No activity” and the “activity of synergistically enhancing the effect of the natural-type ABA” value ([6]; Lys in combination with natural-type ABA ((S)-(+)-ABA)) was “synergistically enhance the effect of the natural-type ABA”. For the same molecule, the “Lys concentrations at which Lys concentration-dependent improvement in expression inducing activity was observed” value [6, 8] was at least 0.25 mM, the “Lys concentrations at which no improvement in expression inducing activity was observed” value [6, 8] was at most 0.1 mM and the “Lys concentration-dependent improvement in expression inducing activity” value ([6]; MAPKKK18, RD29A, RD29B, 0.1-25 mM Lys with 0.25 μM ABA, 6 hours, lower panel of FIG. 3) was “at least up to Lys concentrations of 10 mM or 25 mM”. The “effect of Lys on inducing expression of environmental stress tolerance genes by ABA” value ([6]; MAPKKK18 and RD29B, 1 mM Lys in combination with 0.25 μM ABA, 6 hours) was “enhanced”, the “effect of Lys on inducing expression of environmental stress tolerance genes by ABA agonist” value ([6]; MAPKKK18 and RD29B, 1 mM Lys in combination with opabactin (OP), 6 hours) was “enhanced” and the “effect of Lys on inducing expression of environmental stress tolerance genes by ABA agonist” value ([6]; MAPKKK18 and RD29B, 1 mM Lys in combination with quinabactin (QB), 6 hours) was “enhanced”. For the same molecule, the “activity of synergistically enhancing the effect of ABA” value (“activity … of ABA” below) ([6]; listed as Lys) was “synergistically enhance the effect of ABA; also recorded: significantly high activity” and the “effect of enhancing the ABA activity by Lys” value ([6]; wild-type strain, 0.5 mM Lys with 0.25 μM ABA, 6 hours) was “observed”.

With `N[C@@H](Cc1c[nH]c2ccccc12)C(=O)O` [Trp, tryptophan] the “activity to induce expression” value [7] was “No activity” and the “activity … of ABA” value [6] was “synergistically enhance the effect of ABA”.

In the case of `CC(C)[C@H](N)C(=O)O` [Val, valine], the “activity … of ABA” value [6] is reported as “synergistically enhance the effect of ABA” and the “activity to induce expression” value ([6]; amino acid alone or combination with ABA, 6 hours, n=3) is reported as “No activity”.

With `CC(C)(C)OC(=O)N[C@@H](CCCCNC(=O)OCc1cccc(Cl)c1)C(=O)O` [compound 36] the Activity level [5] was over 1.

`CC(C)(C)OC(=O)NCCCC[C@H](NC(=O)OC(C)(C)C)C(=O)O` [compound 37] gave an Activity level [5] of over 1.

In the case of `CC(C)(C)OC(=O)N[C@@H](CCCCNC(=O)OC(F)(F)F)C(=O)O` [compound 38], the Activity level [5] is reported as over 1.

With `CC(C)(C)OC(=O)NCCCC[C@H](NC(=O)OCC1c2ccccc2-c2ccccc21)C(=O)O` [compound 39] the Activity level [5] was under 1.

Work on `CC(C)(C)OC(=O)N[C@@H](CCCCNC(=O)OCC1c2ccccc2-c2ccccc21)C(=O)O` [compound 40] yielded an Activity level [5] of over 1.

`O=C(NCCCC[C@H](NC(=O)OCc1ccccc1)C(=O)O)OCC1c2ccccc2-c2ccccc21` [compound 41] gave an Activity level [5] of under 1.

With `O=C(NCCCC[C@H](NC(=O)OCC1c2ccccc2-c2ccccc21)C(=O)O)OCC1c2ccccc2-c2ccccc21` [compound 42] the Activity level [5] was over 1.

`Cc1ccc(C(NCCCC[C@H](NC(=O)OCC2c3ccccc3-c3ccccc32)C(=O)O)(c2ccccc2)c2ccccc2)cc1` [compound 43] was tested, and the Activity level [5] was over 1.

In the case of `Cc1cccc(OCC(=O)NCCCC[C@H](NC(=O)COc2cccc(C)c2)C(=O)O)c1` [compound 44], the Activity level [5] is reported as over 1.

In the case of `O=C(O)[C@H](CCCCN1C(=O)c2ccccc2C1=O)N1C(=O)c2ccccc2C1=O` [compound 45], the Activity level [5] is reported as over 1.

`Cn1c(=O)n(CCCC[C@H](NC(=O)c2c(Cl)cccc2Cl)C(=O)O)c(=O)c2ccccc21` [compound 46] showed an Activity level [5] of over 1.

— US20230210110A1, “METHOD FOR INDUCING ENVIRONMENTAL STRESS TOLERANCE IN PLANTS” (AJINOMOTO CO., INC., priority 2020, published 2023)
